Data taken from PMC3231123, “A Bacterial Biosensor for Oxidative Stress Using the Constitutively Expressed Redox-Sensitive Protein roGFP2” (Sensors (Basel, Switzerland), 2010).

Target: T1, roGFP2 (Aequorea victoria, UniProt P42212, C48S/S65T/Q80R/S147C/Q204C)
T1 construct: gene GFP; redox-sensitive GFP mutant, His tag (pRSET-roGFP2), expressed in E. coli DH5alpha, Ni-NTA purified, DTT-reduced then desalted
Experiment: […] nm excitation fluorescence ratio of isolated roGFP2, plate reader
Details: 1 ppm menadione; DTT-reduced roGFP2 1.39 ug/mL; 75 mM HEPES pH 7.0, 140 mM NaCl; monitored 5 min; oxidation of roGFP2, not reversible binding

CC1=CC(=O)c2ccccc2C1=O [menadione, 2-methyl-1,4-naphtoquinone]
% change of 400/490 nm ratio vs t = 0 at 1 ppm: 9.1 to 29.4%
